The source of these data is ChEMBL document CHEMBL1135199, “Structure-activity relationships of non-imidazole H(3) receptor ligands. Part 2: binding preference for D-amino acids motifs” (Bioorg Med Chem Lett, 2002).

One assay concerns the target Histamine H1 receptor (Homo sapiens, UniProt P35367). Description: Binding affinity towards Histamine H1 receptor of human membranes.
Another assay addresses Histamine H2 receptor (Homo sapiens, UniProt P25021). The experiment in a line: Binding affinity towards Histamine H2 receptor from human membranes.
Another assay addresses Histamine H3 receptor (Rattus norvegicus, UniProt Q9QYN8). Description: Binding affinity towards Histamine H3 receptor of rat cortical membranes.

Structures are written as SMILES.

Sequence of Histamine H3 receptor (Q9QYN8 whole entry): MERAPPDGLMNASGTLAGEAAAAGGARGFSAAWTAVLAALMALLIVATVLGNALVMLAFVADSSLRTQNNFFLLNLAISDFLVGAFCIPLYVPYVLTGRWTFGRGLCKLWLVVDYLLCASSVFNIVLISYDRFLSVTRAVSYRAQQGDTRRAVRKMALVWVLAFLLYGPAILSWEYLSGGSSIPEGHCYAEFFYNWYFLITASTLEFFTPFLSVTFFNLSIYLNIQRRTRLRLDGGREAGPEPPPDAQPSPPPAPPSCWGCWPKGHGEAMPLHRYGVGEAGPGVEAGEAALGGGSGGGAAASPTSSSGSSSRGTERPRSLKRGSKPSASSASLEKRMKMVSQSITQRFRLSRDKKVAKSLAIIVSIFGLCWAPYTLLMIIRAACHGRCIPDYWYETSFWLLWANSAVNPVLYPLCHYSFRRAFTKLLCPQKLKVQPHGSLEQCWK
Sequence of Histamine H1 receptor (P35367 whole entry): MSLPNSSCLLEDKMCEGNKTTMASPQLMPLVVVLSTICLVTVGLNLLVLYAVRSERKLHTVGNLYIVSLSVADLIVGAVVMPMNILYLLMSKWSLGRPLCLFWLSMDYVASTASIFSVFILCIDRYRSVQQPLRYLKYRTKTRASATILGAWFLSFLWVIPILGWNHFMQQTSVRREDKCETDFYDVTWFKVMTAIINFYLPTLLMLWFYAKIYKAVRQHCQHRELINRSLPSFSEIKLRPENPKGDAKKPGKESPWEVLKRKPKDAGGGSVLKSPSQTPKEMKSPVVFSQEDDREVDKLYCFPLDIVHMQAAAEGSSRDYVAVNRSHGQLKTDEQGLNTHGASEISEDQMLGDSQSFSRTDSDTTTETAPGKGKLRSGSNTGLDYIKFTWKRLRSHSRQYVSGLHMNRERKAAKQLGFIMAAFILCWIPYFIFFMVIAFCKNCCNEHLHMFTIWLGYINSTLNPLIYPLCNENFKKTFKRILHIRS
Sequence of Histamine H2 receptor (P25021 whole entry): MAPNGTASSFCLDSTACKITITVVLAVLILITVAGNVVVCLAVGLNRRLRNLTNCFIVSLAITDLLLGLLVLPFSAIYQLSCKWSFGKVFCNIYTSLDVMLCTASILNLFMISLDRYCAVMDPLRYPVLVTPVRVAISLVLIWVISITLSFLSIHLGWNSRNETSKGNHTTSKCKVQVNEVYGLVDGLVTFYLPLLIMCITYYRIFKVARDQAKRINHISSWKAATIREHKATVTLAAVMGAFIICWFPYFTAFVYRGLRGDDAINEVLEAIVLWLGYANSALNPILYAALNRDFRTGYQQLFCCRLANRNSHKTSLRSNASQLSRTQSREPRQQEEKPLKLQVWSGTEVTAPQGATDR

Consider `C[C@@H](NC(=O)OC(C)(C)C)C(=O)N1CCN(CCCOc2ccc(C(=O)C3CC3)cc2)CC1`, for which the Ki – broadly, a measure of affinity in units of concentration, obtained from inhibition or displacement – at Histamine H1 receptor was 8.13 µM; on Histamine H2 receptor, 83.2 µM.

Turning to `CC(C)(C)OC[C@@H](N)C(=O)N1CCN(CCCOc2ccc(C(=O)C3CC3)cc2)CC1`, the figures for the Ki on Histamine H3 receptor, at Histamine H1 receptor and at Histamine H2 receptor were 8.51 nM, 16.2 µM and 45.7 µM, respectively.

Take `CC(C)(C)OC(=O)N[C@H](Cc1ccccc1)C(=O)N1CCN(CCCOc2ccc(C(=O)C3CC3)cc2)CC1`: the Ki at Histamine H3 receptor was 3.98 nM; at Histamine H1 receptor, 5.5 µM; at Histamine H2 receptor, 10 µM.

With `CC(C)(C)OC(=O)N1CCC[C@@H]1C(=O)N1CCN(CCCOc2ccc(C(=O)C3CC3)cc2)CC1`, the Ki is 120 nM at Histamine H3 receptor, 46.8 µM at Histamine H1 receptor and 50.1 µM on Histamine H2 receptor.

As to `N[C@H](CCc1ccccc1)C(=O)N1CCN(CCCOc2ccc(C(=O)C3CC3)cc2)CC1`, the Ki is 4.57 nM on Histamine H3 receptor, 10 µM at Histamine H1 receptor and 10 µM at Histamine H2 receptor.

For `O=C1C[C@@H](N2CCN(CCCOc3ccc(C(=O)C4CC4)cc3)CC2)N1`, the inhibition constant (Ki) is 4.37 nM on Histamine H3 receptor, 10 µM on Histamine H1 receptor and 10 µM on Histamine H2 receptor.

On to `N[C@H](Cc1nccs1)C(=O)N1CCN(CCCOc2ccc(C(=O)C3CC3)cc2)CC1`, for which the Ki on Histamine H3 receptor was 5.75 nM; at Histamine H1 receptor, 100 µM; on Histamine H2 receptor, 97.7 µM.

`C[C@H](CN)C(=O)N1CCN(CCCOc2ccc(C(=O)C3CC3)cc2)CC1`: the results for the inhibitory constant (Ki) on Histamine H3 receptor, at Histamine H1 receptor and at Histamine H2 receptor were 8.91 nM, 1.74 µM and 10.7 µM, respectively.

As to `O=C(c1ccc(OCCCN2CCN(C(=O)[C@H]3CCCN3)CC2)cc1)C1CC1`, the Ki on Histamine H3 receptor was 30.2 nM; on Histamine H1 receptor, 37.2 µM; at Histamine H2 receptor it was 53.7 µM.

As to `C[C@@H](CN)C(=O)N1CCN(CCCOc2ccc(C(=O)C3CC3)cc2)CC1`, the Ki is 6.46 nM on Histamine H3 receptor, 1.51 µM at Histamine H1 receptor and 10.2 µM at Histamine H2 receptor.

As for `CC(C)N[C@H](C)C(=O)N1CCN(CCCOc2ccc(C(=O)C3CC3)cc2)CC1`, the Ki is 8.71 nM on Histamine H3 receptor, 46.8 µM at Histamine H1 receptor and 50.1 µM at Histamine H2 receptor.

Turning to `CCCCCC(=O)c1ccc(OCCCN2CCN(C(=O)[C@@H](NC(=O)OC(C)(C)C)C(C)C)CC2)cc1`, the results for the Ki at Histamine H3 receptor, on Histamine H1 receptor and on Histamine H2 receptor were 97.7 nM, 10.7 µM and 12.6 µM, respectively.

As for `N[C@@H](C(=O)N1CCN(CCCOc2ccc(C(=O)C3CC3)cc2)CC1)C1Cc2ccccc2C1`, the Ki was 26.3 nM on Histamine H3 receptor, 10.7 µM at Histamine H1 receptor and 19.1 µM at Histamine H2 receptor.

`CCCCCC(=O)c1ccc(OCCCN2CCN(C(=O)[C@@H](N)C(C)C)CC2)cc1`: the Ki at Histamine H3 receptor was 79.4 nM; at Histamine H1 receptor, 19.1 µM; on Histamine H2 receptor it was 38 µM.

As for `CN[C@@H](C(=O)N1CCN(CCCOc2ccc(C(=O)C3CC3)cc2)CC1)C(C)C`, the values for the Ki at Histamine H3 receptor, at Histamine H1 receptor and on Histamine H2 receptor were 75.9 nM, 34.7 µM and 49 µM, respectively.

On to `CCCCCC(=O)c1ccc(OCCCN2CCN(C(=O)[C@H](CC(C)C)NC(=O)OC(C)(C)C)CC2)cc1`, for which the Ki at Histamine H3 receptor is 112 nM; at Histamine H1 receptor it was 8.13 µM; at Histamine H2 receptor, 3.47 µM.

As to `N#CC[C@@H](N)C(=O)N1CCN(CCCOc2ccc(C(=O)C3CC3)cc2)CC1`, the Ki at Histamine H3 receptor was 28.8 nM; at Histamine H1 receptor it was 45.7 µM; on Histamine H2 receptor, 72.4 µM.

Turning to `CCCCCC(=O)c1ccc(OCCCN2CCN(C(=O)[C@@H](N)Cc3ccncc3)CC2)cc1`, the Ki at Histamine H3 receptor was 10.2 nM; on Histamine H1 receptor, 2.29 µM; at Histamine H2 receptor, 34.7 µM.

As for `CCCCCC(=O)c1ccc(OCCCN2CCN(C(=O)[C@@H](N)CC(C)C)CC2)cc1`, the Ki is 170 nM at Histamine H3 receptor, 9.77 µM at Histamine H1 receptor and 16.6 µM at Histamine H2 receptor.

Regarding `O=C(c1ccc(OCCCN2CCN(C(=O)[C@H]3CCN3)CC2)cc1)C1CC1`, the results for the Ki at Histamine H3 receptor, at Histamine H1 receptor and on Histamine H2 receptor were 1.32 nM, 12.6 µM and 14.1 µM, respectively.

In the case of `CNCC(=O)N1CCN(CCCOc2ccc(C(=O)C3CC3)cc2)CC1`, the Ki on Histamine H3 receptor was 2.29 nM; on Histamine H1 receptor it was 100 µM; on Histamine H2 receptor it was 79.4 µM.

`N[C@H](CC1CCCCC1)C(=O)N1CCN(CCCOc2ccc(C(=O)C3CC3)cc2)CC1`: the Ki at Histamine H3 receptor was 162 nM; at Histamine H1 receptor, 14.5 µM; on Histamine H2 receptor, 20.4 µM.

Regarding `CCCCCC(=O)c1ccc(OCCCN2CCN(C(=O)[C@@H](C)NC(=O)OC(C)(C)C)CC2)cc1`, the Ki at Histamine H3 receptor was 1.23 nM; at Histamine H1 receptor, 6.76 µM; at Histamine H2 receptor, 10.7 µM.

In the case of `CCCCCC(=O)c1ccc(OCCCN2CCN(C(=O)[C@@H](CO)NC(=O)OC(C)(C)C)CC2)cc1`, the inhibition constant (Ki) on Histamine H3 receptor is 2.4 nM; on Histamine H1 receptor it was 17 µM; on Histamine H2 receptor, 22.9 µM.

As to `CCCCCC(=O)c1ccc(OCCCN2CCN(C(=O)[C@H](N)CO)CC2)cc1`, the values for the Ki on Histamine H3 receptor, at Histamine H1 receptor and at Histamine H2 receptor were 7.08 nM, 46.8 µM and 34.7 µM, respectively.

As for `O=C1C[C@H](N2CCN(CCCOc3ccc(C(=O)C4CC4)cc3)CC2)N1`, the results for the Ki on Histamine H3 receptor, on Histamine H1 receptor and on Histamine H2 receptor were 42.7 nM, 21.9 µM and 26.9 µM, respectively.

In turn, `CC(C)(C)C[C@@H](N)C(=O)N1CCN(CCCOc2ccc(C(=O)C3CC3)cc2)CC1` gave a Ki at Histamine H1 receptor of 10.2 µM.

On to `CCC[C@@H](N)C(=O)N1CCN(CCCOc2ccc(C(=O)C3CC3)cc2)CC1`, for which the Ki was 3.98 nM at Histamine H3 receptor, 46.8 µM at Histamine H1 receptor and 60.3 µM at Histamine H2 receptor.

Turning to `CCCCCC(=O)c1ccc(OCCCN2CCN(C(=O)[C@@H](CC(C)C)NC(=O)OC(C)(C)C)CC2)cc1`, the Ki on Histamine H3 receptor was 14.5 nM; at Histamine H1 receptor, 4.68 µM; at Histamine H2 receptor, 4.47 µM.

For `CC[C@@H](N)C(=O)N1CCN(CCCOc2ccc(C(=O)C3CC3)cc2)CC1` (stereo in doubt; 43), the Ki was 1.58 nM on Histamine H3 receptor, 70.8 µM at Histamine H1 receptor and 100 µM on Histamine H2 receptor.

Regarding `CCCCCC(=O)c1ccc(OCCCN2CCN(C(=O)[C@H](N)Cc3ccncc3)CC2)cc1`, the values for the Ki at Histamine H3 receptor, on Histamine H1 receptor and on Histamine H2 receptor were 9.12 nM, 3.31 µM and 37.2 µM, respectively.

Consider `O=C(c1ccc(OCCCN2CCN(C(=O)C[C@H]3CCCN3)CC2)cc1)C1CC1`, for which the Ki at Histamine H1 receptor is 95.5 µM; on Histamine H2 receptor, 89.1 µM.

Turning to `CCCCCC(=O)c1ccc(OCCCN2CCN(C(=O)[C@@H](C)N)CC2)cc1`, the figures for the inhibitory constant (Ki) on Histamine H3 receptor, on Histamine H1 receptor and at Histamine H2 receptor were 1.91 nM, 35.5 µM and 40.7 µM, respectively.

`CC[C@H](N)C(=O)N1CCN(CCCOc2ccc(C(=O)C3CC3)cc2)CC1`: the results for the Ki on Histamine H3 receptor, on Histamine H1 receptor and at Histamine H2 receptor were 2.51 nM, 4.68 µM and 10.7 µM, respectively.

As to `CCCCCC(=O)c1ccc(OCCCN2CCN(C(=O)[C@H](N)CC(C)C)CC2)cc1`, the Ki on Histamine H3 receptor is 61.7 nM; on Histamine H1 receptor, 14.5 µM; at Histamine H2 receptor, 14.1 µM.

`N[C@H](Cc1cccc2ccccc12)C(=O)N1CCN(CCCOc2ccc(C(=O)C3CC3)cc2)CC1`: the Ki at Histamine H3 receptor was 214 nM; at Histamine H1 receptor it was 2 µM; at Histamine H2 receptor, 20.9 µM.

`CC(C)(C)[C@@H](N)C(=O)N1CCN(CCCOc2ccc(C(=O)C3CC3)cc2)CC1`: the Ki at Histamine H3 receptor was 52.5 nM; at Histamine H1 receptor it was 21.9 µM; on Histamine H2 receptor it was 19.1 µM.

With `N[C@H](Cc1cc2ccccc2s1)C(=O)N1CCN(CCCOc2ccc(C(=O)C3CC3)cc2)CC1`, the results for the Ki at Histamine H3 receptor, on Histamine H1 receptor and on Histamine H2 receptor were 288 nM, 4.37 µM and 15.1 µM, respectively.
